Test [1] has as its system human skin fibroblasts. The test can be described thus: Collagen production promoting effect of AMP2Na on cultured human skin fibroblasts (PICP EIA), Test Example 1. It counts as cell-based. The conditions noted are these: 2 days culture, culture supernatant, FIG. 1. Here is the method:
Evaluation of the collagen production promoting effect of adenosine monophosphate disodium on cultured human skin fibroblasts.
Primary-cultured human skin fibroblasts (manufactured by Kurabo Industries, Ltd.) were cultured in a 10 cm petri dish, and the cultured cells were collected in the subconfluent state and then freeze-preserved. Using the freeze-preserved cells, an evaluation of the collagen production promoting effect of adenosine monophosphate disodium (hereinafter, referred to as “AMP2Na) was conducted. In the following, the proportion of AMP2Na was based on the concentration of AMP.
1) The freeze-preserved cells were dissolved in an LSGS (Low Serum Growth Supplement)-containing liquid culture medium 106S (manufactured by Kurabo Industries, Ltd.), and the cell concentration and medium amount were adjusted to 30000 cells/100 μl. 100 μl of thus obtained cell-containing liquid was poured into each well of a test plate. […]
(§1) 4) Two days after culture initiation, the culture supernatant of each well was collected, and the amount of Procollagen type I C-peptide (PICP) was determined based on the amount of collagen in the culture supernatant using a Procollagen type I C-peptide (PIP) EIA Kit (manufactured by Takara Bio Inc.).

Test [2] has as its system human skin fibroblasts. Nature of the test: Collagen production promoting effect of combined use of AMP2Na and UMP2Na on cultured human skin fibroblasts (PICP EIA), Test Example 2. It counts as cell-based. Here is the method:
1) The freeze-preserved cells were dissolved in an LSGS (Low Serum Growth Supplement)-containing liquid culture medium 106S (manufactured by Kurabo Industries, Ltd.), and the cell concentration and medium amount were adjusted to 30000 cells/100 μl. 100 μl of thus obtained cell-containing liquid was poured into each well of a test plate.
2) AMP2Na solutions of various concentrations were prepared using a sterilized phosphate buffer solution, and then filtered through a filter, followed by sterilization. The resultants were added to a liquid medium 106S (manufactured by Kurabo Industries, Ltd.) to prepare AMP2Na-containing culture media of various concentrations (0 to 1×10^−5 w/v %).
3) Twenty four hours after injecting cells into the plate wells, it was confirmed that human fibroblasts adhered to the wells, and the medium was removed from each well. Subsequently, an AMP2Na-containing culture medium (200 μl) of one of various concentrations prepared in 2) above was added to each well. The mixtures were cultured at 37° C. under 5% CO2 for two days.
as §1
Evaluation of the collagen production promoting effect of the combined use of adenosine monophosphate disodium and uridine monophosphate disodium on cultured human skin fibroblasts.
The evaluation of the collagen production promoting effect of cultured human skin fibroblasts was conducted following the same procedure of Test Example 1 above except for using such media. In Table 1, the proportions of AMP2Na and UMP2Na were based on the concentration of AMP and UMP, respectively.

Molecules are shown by their SMILES.

With `Nc1ncnc2c1ncn2[C@@H]1O[C@H](COP(=O)([O-])[O-])[C@@H](O)[C@H]1O.[Na+].[Na+]` [AMP2Na, adenosine monophosphate disodium], the “PICP amount relative to cells cultured in the AMP-free medium” value in test [1] (AMP2Na 1×10^−5 w/v % in medium) is recorded as “about 1.4 times”. For the same compound, the “PICP amount as compared with cells cultured in an AMP-free medium” value in test [1] (AMP2Na 1×10^−8 to 1×10^−5 w/v % in medium) is given as “increased”. The “action of promoting collagen production (PICP concentration)” value in test [2] (AMP2Na alone 1×10^−6 w/v % (test medium 2) vs test medium 4, FIG. 2) was “has an action of promoting collagen production”.
On to `O=c1ccn([C@@H]2O[C@H](COP(=O)([O-])[O-])[C@@H](O)[C@H]2O)c(=O)[nH]1.[Na+].[Na+]` [UMP2Na, uridine monophosphate disodium], for which the “action of promoting collagen production (PICP concentration)” value in test [2] (UMP2Na alone 1×10^−8 w/v % (test medium 3) vs test medium 4, FIG. 2) is “no action of promoting collagen production”. In addition, in test [2] (combined use: AMP2Na 1×10^−6 w/v % + UMP2Na 1×10^−8 w/v % (test medium 1), FIG. 2), the “potentiation of the action of promoting collagen production of AMP2Na (PICP concentration)” value is “sharply potentiates”.

For the origin of these results see patent US20070135374A1, “Composition for promoting collagen production” (OTSUKA PHARMACEUTICAL CO., LTD., priority 2003, published 2007).
